Test results from patent US20260165954A1, “BIO[…]-AND-RESERVOIR SYSTEM FOR THE PULSED DELIVERY OF BIOACTIVE AGENTS” (University of Mississippi, priority 2022, published 2026).

Legend:
[1] = In vitro release of DOI from single-layered CAPP films; format: physicochemical; conditions: 0.1 mm single-layered CAPP films; FIG. 12A
Source text: (§1) FIGS. 12A-12G show in vivo delivery of 5HT2A agonist DOI from single- and multi-layer CAPP films. (FIG. 12A) In vitro cumulative release of DOI from 0.1 mm CAPP films. (FIG. 12B) Scheme of subcutaneous implantation of 0.1 mm DOI-loaded CAPP films and experimental time course. Pharmacokinetics of DOI released from subcutaneously implanted, single-layered CAPP films in (FIG. 12C) plasma (n=4) and (FIG. 12D) brain (n=4). (FIG. 12E) Scheme of subcutaneous implantation of multilayered CAPP films and experimental time course. Pharmacokinetics of DOI released from multilayered CAPP films in (FIG. 12F) plasma (n=4), and (FIG. 12G) brain (n=4).
(§2) To confirm that 5HT2A agonists could be effectively delivered in vivo from an implantable drug delivery system, the encapsulation and release of DOI (2,5-dimethoxy-4-iodoamphetamine) from CAPP films was investigated. DOI release was first observed from single-layered CAPP films. […] The DOI-loaded, single-layered films were next implanted subcutaneously in CD-1 mice (50:50 M:F mice) and monitored the pharmacokinetics and biodistribution of DOI after implantation (FIGS. 12B-12D). […] After this initial optimization, multilayered CAPP films with DOI encapsulated in the ‘release’ layers were generated and implanted them subcutaneously in CD-1 mice (50:50 M:F mice; FIG. 12E). […]

[2] = Pharmacokinetics of DOI from subcutaneously implanted single-layered CAPP films; format: in vivo; conditions: CD-1 mice
Source text: as §1, §2

[3] = Pharmacokinetics of DOI from subcutaneously implanted multilayered CAPP films; format: in vivo; conditions: subcutaneous multilayered CAPP films, CD-1 mice
Source text: as §1, §2

With `COc1cc(CC(C)N)c(OC)cc1I` (centres unmarked) [DOI, 2,5-dimethoxy-4-iodoamphetamine] the “in vitro release kinetics” value [1] was “closely mimicked that of rhodamine and FITC”, the “time of peak plasma concentration post-implantation” value ([2]; subcutaneous 0.1 mm DOI-loaded single-layered CAPP films, plasma, FIG. 12C) was 2 h and the “brain distribution and clearance” value ([2]; subcutaneous single-layered CAPP films, brain, FIG. 12D) was “rapidly accumulated in the brain after which it was cleared with similar kinetics to the blood plasma”. The “absorption and tissue accumulation from the first 'release' layer” value [3] was “rapid absorption of DOI and accumulation in the brain (as well as kidneys and liver)” and the “time of second pulse in plasma and organs after the first pulse” value ([3]; FIGS. 12F-12G) was about 20 h.
